Assay [1] concerns TGF-β-stimulated SMAD3 phosphorylation in BEAS-2B cells. Nature of the assay: Cellular ALK5 potency assay, inhibition of TGF-β stimulated pSMAD3 formation in BEAS-2B cells. It counts as cell-based. Particulars: Homo sapiens, pSMAD3, TGF-β 10 ng/mL, read-out: BEAS2B pIC50 (converted). The procedure: The potency of compounds of the present disclosure for inhibition of TGF-β-stimulated SMAD3 phosphorylation was measured in BEAS-2B cells, a human lung epithelial cell line. TGF-β signals through activin receptor-like kinase 5 (ALK5) immediately prior to SMAD3 phosphorylation.
BEAS-2B cells were grown using 50% DMEM (Life Technologies) and 50% F-12 (Life Technologies) media, supplemented with 10% Fetal Bovine Serum (ATCC), 25 mM HEPES (Life Technologies), and 1×Pen-Strep (Life Technologies). Cells were cultured in a humidified incubator set at 37° C., 5% CO2, and trypsonized using 0.25% Trypsin with 0.5% polyvinylpyrrolidone (PVP).
For the assay, BEAS-2B cells were seeded at 7,500 cells/well (25 μL/well) in a 384-well plate and cultured overnight. Before dosing, growth media was aspirated and the wells were rinsed with HBSS Buffer (HBSS with Calcium and Magnesium, Life Technologies) supplemented with 25 mM HEPES (Life Technologies) and 1% Bovine Serum Albumin (Roche). Compounds were serially diluted in DMSO, then further diluted with supplemented HBSS Buffer (50 μL/well) to create a compound plate 3× of the final assay concentration, at 0.3% DMSO. The diluted compounds were then added to the cells (8 μL/well) and incubated at 37° C., 5% CO2 for 1 hour. After the compound incubation, TGF-β (R&D Systems) reconstituted in supplemented HBSS Buffer was added to the cells ([…], final concentration 10 ng/mL) and incubated for a further 30 minutes, after which the cells were immediately lysed with AlphaLISA lysis buffer (PerkinElmer). AlphaLISA Acceptor and Detector beads (PerkinElmer) were added 2 hours apart, then incubated overnight to be read the next day. The potency of the compound was determined through analysis of dose-dependent quantified changes in pSMAD3 signal from baseline (non-compound treated TGF-β stimulated cells). Data are expressed as pIC50 (negative decadic logarithm IC50) values.

The target of assay [2] is T1, recombinant human ALK5 (TGF-βR1) protein (Homo sapiens, UniProt P36897).
T1 construct: purchased Life Technologies PR9075A
T1 sequence (P36897 34-503): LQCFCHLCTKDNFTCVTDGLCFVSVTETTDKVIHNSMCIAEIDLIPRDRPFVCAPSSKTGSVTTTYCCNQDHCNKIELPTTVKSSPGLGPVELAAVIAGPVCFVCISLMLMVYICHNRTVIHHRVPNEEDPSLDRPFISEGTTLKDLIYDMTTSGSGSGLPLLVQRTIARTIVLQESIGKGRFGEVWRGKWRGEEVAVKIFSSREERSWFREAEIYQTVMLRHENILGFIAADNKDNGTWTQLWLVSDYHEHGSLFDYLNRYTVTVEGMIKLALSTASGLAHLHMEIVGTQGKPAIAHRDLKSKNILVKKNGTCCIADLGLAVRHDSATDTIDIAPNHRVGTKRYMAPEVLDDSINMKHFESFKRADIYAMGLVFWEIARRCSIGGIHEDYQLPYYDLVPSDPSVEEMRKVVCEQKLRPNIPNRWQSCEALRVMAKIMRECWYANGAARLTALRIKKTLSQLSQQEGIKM
The experiment in a line: Biochemical ALK5 (TGF-βR1) assay to measure pKi (LANCE Ultra ULight kinase assay). Particulars: apparent pKi, converted from pIC50 by Cheng-Prusoff. The procedure:
The assays were performed in a 384-well plate (24 columns×16 wells/rows). An Echo®550 Liquid Handler (Labcyte) was used to prepare various intermediate concentrations of compounds of the present disclosure in 100% DMSO. From the intermediate concentrations, a range of concentrations (from […] to 25 μM corresponding to volumes up to 105 nL) were prepared and ejected into a final assay plate to be used to create individual dose response curves for each of the subject compounds. To a separate column within the assay plate, 105 nL of DMSO in each well was used to establish a maximum assay signal. Additionally, 105 nL of 100 μM SD-208, a selective TGF-βR1 inhibitor (Catalog #S7624, Selleck Chemicals), was used in another column of wells to establish a minimal assay signal.
With a multidrop dispenser, 8 μL of enzyme mixture (1.25× final) was added to each well. […] The plate was then sealed with an adhesive seal and allowed to equilibrate for 60 minutes at room temperature.
Next, 2 μL of 125 μM ATP (5×final, 125 μM ATP prepared in assay buffer with 2 mM DTT) was added to the incubated mixtures, covered with a MicroClime® Environmental Lid (Product No. LLS-0310, Labcyte) and immediately transferred to 37° C. The reactions were allowed to proceed at 37° C. for 60 minutes before terminating with the addition of 10 μL of detection antibody (LANCE® (lanthanide chelate excite) Ultra Europium-anti-phospo-DNA Topoisomerase 2-alpha (Thr1342)) in detection mixture (12 mM EDTA, 4 nM detection antibody prepared in detection buffer (50 mM Tris-HCl, 150 mM NaCl, 0.5% BSA (Fraction V), pH 7.0)) at room temperature. The plate was then read on a Perkin Elmer EnVision Plate Reader using europium specific reader settings with excitation and emission wavelengths set to 320 or 340 nm and 665 nm, respectively.
For dose-response analyses, percent inhibition versus compound concentrations were plotted, and pIC50 values were determined from a 4-parameter robust fit model with GraphPad Prism V5 Software (GraphPad Software, Inc., La Jolla, CA). This model obtains pIC50 values by fitting the sigmoidal dose-response (variable slope) equation to the data. Results were expressed as pIC50 (negative logarithm of IC50) and subsequently converted to pKi (negative logarithm of dissociate constant, Ki) using the Cheng-Prusoff equation. The higher the value of pKi (lower value of Ki), the greater the inhibition of ALK5 activity.

On to `Cc1cccc(-c2nccc(Nc3ccnc(Nc4ccc(CN5[C@H]6CCNC[C@@H]5CC6)cc4)n3)n2)n1` (racemic) [Compound 360, N4-[2-(6-methyl-2-pyridyl)pyrimidin-4-yl]-N2-[4-[[rac-(1S,6R)-3,9-diazabicyclo[4.2.1]nonan-9-yl]methyl]phenyl]pyrimidine-2,4-diamine], for which the IC50 in assay [1] was 25.1 to 158 nM. Moreover, the Ki in assay [2] is 0.0398 to 0.316 nM.

Consider `CC[C@H](C)OC(=O)C1CN(Cc2ccc(Nc3nccc(Nc4ccnc(-c5cccc(C)n5)n4)n3)cc2)CCN1` (mixture of isomers) [Compound 382, [rac-(1S)-1-methylpropyl] 4-[[4-[[4-[[2-(6-methyl-2-pyridyl)pyrimidin-4-yl]amino]pyrimidin-2-yl]amino]phenyl]methyl] piperazine-2-carboxylate], for which the IC50 in assay [1] is 25.1 to 158 nM. Also, in assay [2], the Ki was 0.0398 to 0.316 nM.

Take `Cc1cccc(-c2nccc(Nc3ccnc(Nc4ccc(CN5CCCC(C(=O)NC6CCNC6)C5)cc4)n3)n2)n1` (racemic) [Compound 456, 1-[[4-[[4-[[2-(6-methyl-2-pyridyl)pyrimidin-4-yl]amino]pyrimidin-2-yl]amino]phenyl]methyl]-N-[rac-(3R)-pyrrolidin-3-yl]piperidine-3-carboxamide]: the IC50 in assay [1] was 25.1 to 158 nM. Besides, the Ki in assay [2] is 0.0398 to 0.316 nM.

With `Cc1cccc(-c2nccc(Nc3ccnc(Nc4ccc(N[C@H]5CCNC5)cc4)n3)n2)n1` [Compound 1, N4-[2-(6-methyl-2-pyridyl)pyrimidin-4-yl]-N2-[4-[[(3S)-pyrrolidin-3-yl]amino]phenyl]pyrimidine-2,4-diamine], in assay [1], the IC50 was 25.1 to 158 nM. For the same compound, in assay [2], the Ki was 0.0398 to 0.316 nM.

In the case of `Cc1cccc(-c2nccc(Nc3ccnc(Nc4cc(F)c(C(=O)N5CCNCC5)c(Cl)c4)n3)n2)n1` [Compound 2, [2-chloro-6-fluoro-4-[[4-[[2-(6-methyl-2-pyridyl)pyrimidin-4-yl]amino]pyrimidin-2-yl]amino]phenyl]-piperazin-1-yl-methanone], in assay [1], the IC50 was 25.1 to 158 nM. In assay [2], the Ki is 0.398 to 3.16 nM.

On to `CC(=O)N1CC(CNc2ccc(Nc3nccc(Nc4ccnc(-c5cccc(C)n5)n4)n3)cc2)C1` [Compound 3, 1-[3-[[4-[[4-[[2-(6-methyl-2-pyridyl)pyrimidin-4-yl]amino]pyrimidin-2-yl]amino]anilino]methyl]azetidin-1-yl]ethanone], for which the IC50 in assay [1] was 25.1 to 158 nM. The Ki in assay [2] was 0.398 to 3.16 nM.

As for `Cc1cccc(-c2nccc(Nc3ccnc(Nc4ccc(N5CCC(N6CCN(C)CC6)CC5)cc4)n3)n2)n1` [Compound 4, N2-[4-[4-(4-methylpiperazin-1-yl)-1-piperidyl]phenyl]-N4-[2-(6-methyl-2-pyridyl)pyrimidin-4-yl]pyrimidine-2,4-diamine], in assay [1], the IC50 is 25.1 to 158 nM. In addition, the Ki in assay [2] is 0.0398 to 0.316 nM.

For the compound `Cc1cccc(-c2nccc(Nc3ccnc(Nc4ccc(N)cc4)n3)n2)n1` [Compound 5, N2-(4-aminophenyl)-N4-[2-(6-methyl-2-pyridyl)pyrimidin-4-yl]pyrimidine-2,4-diamine], in assay [1], the IC50 is no more than 20 nM. In addition, the Ki in assay [2] was 0.398 to 3.16 nM.

In the case of `COc1ccc(Nc2nccc(Nc3ccnc(-c4cccc(C)n4)n3)n2)cc1NC(=O)C1CCNCC1` [Compound 6, N-[2-methoxy-5-[[4-[[2-(6-methyl-2-pyridyl)pyrimidin-4-yl]amino]pyrimidin-2-yl]amino]phenyl]piperidine-4-carboxamide], the IC50 in assay [1] is 25.1 to 158 nM. Also, the Ki in assay [2] was 0.0398 to 0.316 nM.

`Cc1cccc(-c2nccc(Nc3ccnc(Nc4ccc(N5CCSCC5)cc4)n3)n2)n1` [Compound 8, N4-[2-(6-methyl-2-pyridyl)pyrimidin-4-yl]-N2-(4-thiomorpholinophenyl) pyrimidine-2,4-diamine]: the IC50 in assay [1] was 25.1 to 158 nM. The Ki in assay [2] is 0.0398 to 0.316 nM.

As for `CC[C@@H](C)OC(=O)CC1CNCCN1c1ccc(Nc2nccc(Nc3ccnc(-c4cccc(C)n4)n3)n2)cc1` (stereo partly drawn) [Compound 9, [(1R)-1-methylpropyl] 2-[1-[4-[[4-[[2-(6-methyl-2-pyridyl)pyrimidin-4-yl]amino]pyrimidin-2-yl]amino]phenyl]piperazin-2-yl]acetate], in assay [1], the IC50 is 25.1 to 158 nM. The Ki in assay [2] is 0.0398 to 0.316 nM.

Turning to `Cc1cccc(-c2nccc(Nc3ccnc(Nc4ccc(NC(=O)C5CCCNC5)cc4)n3)n2)n1` (stereo not shown) [Compound 10, N-[4-[[4-[[2-(6-methyl-2-pyridyl)pyrimidin-4-yl]amino]pyrimidin-2-yl]amino]phenyl]piperidine-3-carboxamide], in assay [1], the IC50 was no more than 20 nM. Further, in assay [2], the Ki was 0.0398 to 0.316 nM.

Regarding `Cc1cccc(-c2nccc(Nc3ccnc(Nc4ccc(N5CCCC(C(=O)OC6CCNC6)C5)cc4)n3)n2)n1` (stereo not shown) [Compound 11, pyrrolidin-3-yl 1-[4-[[4-[[2-(6-methyl-2-pyridyl)pyrimidin-4-yl]amino]pyrimidin-2-yl]amino]phenyl]piperidine-3-carboxylate], in assay [1], the IC50 is 200 to 1260 nM. For the same compound, the Ki in assay [2] was 0.0398 to 0.316 nM.

Turning to `CC(=O)N1CCN(S(=O)(=O)c2ccc(Nc3nccc(Nc4ccnc(-c5cccc(C)n5)n4)n3)cc2)CC1` [Compound 12, 1-[4-[4-[[4-[[2-(6-methyl-2-pyridyl)pyrimidin-4-yl]amino]pyrimidin-2-yl]amino]phenyl]sulfonylpiperazin-1-yl]ethanone], the IC50 in assay [1] is 25.1 to 158 nM. Moreover, the Ki in assay [2] was 0.0398 to 0.316 nM.

Regarding `CC[C@@H](C)OC(=O)Cc1cc(Nc2nccc(Nc3ccnc(-c4cccc(C)n4)n3)n2)ccc1N1CCNCC1` [Compound 13, (R)-sec-butyl 2-(5-((4-((2-(6-methylpyridin-2-yl)pyrimidin-4-yl)amino)pyrimidin-2-yl)amino)-2-(piperazin-1-yl)phenyl)acetate], in assay [1], the IC50 was 25.1 to 158 nM. Further, the Ki in assay [2] is 0.0398 to 0.316 nM.

`Cc1cccc(-c2nccc(Nc3ccnc(Nc4ccc(NC(=O)C5CCNCC5)cc4)n3)n2)n1` [Compound 14, N-(4-((4-((2-(6-methylpyridin-2-yl)pyrimidin-4-yl)amino)pyrimidin-2-yl)amino)phenyl)piperidine-4-carboxamide]: in assay [1], the IC50 is no more than 20 nM. Further, in assay [2], the Ki is 0.0398 to 0.316 nM.

As to `Cc1cccc(-c2nccc(Nc3ccnc(Nc4ccc(N5CC6(CNC6)C5)cc4)n3)n2)n1` [Compound 15, N2-[4-(2,6-diazaspiro[3.3]heptan-2-yl)phenyl]-N4-[2-(6-methyl-2-pyridyl)pyrimidin-4-yl]pyrimidine-2,4-diamine], the IC50 in assay [1] was 25.1 to 158 nM. In addition, in assay [2], the Ki was 0.0398 to 0.316 nM.

For the origin of these results see patent US20230399312A1, “SUBSTITUTED PYRIMIDINES AND METHODS OF USE” (THERAVANCE BIOPHARMA R&D IP, LLC, priority 2020, published 2023).
